Patent US8815909B2, “Diaminocyclohexane compounds and uses thereof” (Bristol-Myers Squibb Company, priority 2011, dated 2014)

target: T1, human Y4 receptor (Homo sapiens, UniProt P50391); assay: NPY4 cAMP HTRF Agonist Assay (inhibitory cAMP assay, Gi activation by Y4 agonism); type: cell-based; details: TABLE 2, R2 is Phenyl-CN; read-out: hY4 CAMP EC50
T1 construct: expressed in transfected cells
Method: NPY4 cAMP HTRF Agonist Assay
The functionality of the compound at Y4 receptor was analyzed using a inhibitory cAMP assay (CISBIO, HTRF cAMP kit #62AM4PEC) to measure the Gi activation by Y4 agonism.
The human Y4 stable CHO clonal cells were maintained in culture medium (F-12 containing 10% Fetal Bovine Serum, […] GENETICIN®, […] Zeocin). Before the experiment, 5 μL of 1 uM Forskolin (Sigma, # F6886) and 100 uM IBMX (Sigma, # I5879) in PBS buffer were added into 384-well plates (PE, Proxi-plate) that were pre-dotted with 100 nL compounds. The cells were removed from the flasks by Cellstripper, counted and adjusted to 1.0×10^6 cells/mL in PBS buffer, and added 5 μL/well (5000 cells/well) into the above 384-well plates. The cells were then covered and incubated for 30 minutes at room temperature. After incubation, 5 μL/well of D2-conjugate in HTRF lysis buffer was first added, followed by adding 5 μL/well of anti-cAMP Cryptate in HTRF lysis buffer. The plates were incubated for another 1 hour at room temperature and read on the EnVision Multilabel Plate Reader.
Compounds described herein were tested in the above assay.

T1 sequence (P50391 whole entry): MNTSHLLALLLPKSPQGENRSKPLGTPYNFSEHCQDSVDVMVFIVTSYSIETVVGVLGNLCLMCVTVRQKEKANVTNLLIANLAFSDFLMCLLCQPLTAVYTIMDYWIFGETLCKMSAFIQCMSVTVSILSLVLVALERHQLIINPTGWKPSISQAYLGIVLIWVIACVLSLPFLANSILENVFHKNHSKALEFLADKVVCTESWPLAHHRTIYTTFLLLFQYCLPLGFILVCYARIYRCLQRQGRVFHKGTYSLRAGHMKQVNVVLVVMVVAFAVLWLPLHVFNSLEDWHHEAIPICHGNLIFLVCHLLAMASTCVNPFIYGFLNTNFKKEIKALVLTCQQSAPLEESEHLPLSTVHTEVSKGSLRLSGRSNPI

EC50 [nM]	SMILES
922	CS(=O)(=O)c1ccc(-c2ccnc(N[C@@H]3CCCC[C@H]3N[C@H]3CCCN(c4ccc(C#N)cc4)C3)c2)cc1 [Example 255]
5	COC(=O)Nc1cccc(-c2ccnc(N[C@@H]3CCCC[C@H]3N[C@H]3CCCN(c4ccc(C#N)cc4)C3)c2)c1 [Example 201]
3	N#Cc1ccc(N2CC3CC2[C@@H](N[C@@H]2CCCC[C@H]2Nc2ncc(-c4ccc(OC(F)F)cc4)o2)C3)cc1 (stereo partly drawn) [Example 229]

Continued, molecule first:

SMILES	EC50 [nM]
N#Cc1ccc(N2CCC[C@H](N[C@@H]3CCCC[C@H]3NC3=NOC(c4ccccc4)C3)C2)cc1 (stereo partly drawn) [Example 230]	378
N#Cc1ccc(N2CCC[C@H](N[C@@H]3CCCC[C@H]3Nc3cc(-n4cccn4)ccn3)C2)cc1 [Example 284]	176
N#Cc1ccc(N2C[C@@H]3C[C@H](N[C@@H]4CCCC[C@H]4Nc4cc(Br)ccn4)[C@H]2C3)cc1 [Example 233]	196

same assay, conditions: TABLE 4, R2 is Pyridinyl-CN; read-out: hY4 CAMP EC50

EC50 [nM]	SMILES
165	N#Cc1ccc(N2CCC[C@H](N[C@@H]3CCCC[C@H]3Nc3cc(-c4cccc(C(N)=O)c4)ccn3)C2)cn1 [Example 316]
124	N#Cc1ccc(N2CCCC(N[C@@H]3CCCC[C@H]3Nc3cc(-c4cccc(C(N)=O)c4)ccn3)C2)cn1 (stereo partly drawn) [Example 312]

same assay, conditions: TABLE 5, R2 is Pyridinyl-CF3; read-out: hY4 CAMP EC50

EC50 [nM]	SMILES
1	NC(=O)c1cccc(-c2cnc(N[C@@H]3CCCC[C@H]3N[C@H]3CCCN(c4ccc(C(F)(F)F)nc4)C3)o2)c1 [Example 320]
10	NC(=O)c1cccc(-c2ccnc(N[C@@H]3CCCC[C@H]3N[C@H]3CCCN(c4ccc(C(F)(F)F)cn4)C3)c2)c1 [Example 319]
9	NC(=O)c1cccc(-c2cnc(N[C@@H]3CCCC[C@H]3N[C@H]3C[C@@H]4C[C@H]3N(c3ccc(C(F)(F)F)cn3)C4)o2)c1 [Example 326]

same assay, conditions: TABLE 7, R2 is Pyridinyl-oxadiazole-CH3; read-out: hY4 CAMP EC50

EC50 [nM]	SMILES
194	Cc1nc(-c2ccc(N3CCC[C@H](N[C@@H]4CCCC[C@H]4Nc4ncc(-c5ccc(OC(F)(F)F)cc5)o4)C3)nc2)no1 [Example 392]

same assay, conditions: human Y4 receptor, cAMP; read-out: hY4 CAMP EC50

EC50 [nM]	SMILES
41	NC(=O)c1cccc(-c2cnc(N[C@@H]3CCCC[C@H]3N[C@H]3C[C@@H]4C[C@H]3N(c3ncc(C(F)(F)F)cn3)C4)o2)c1 [Example 422]
6	CCNC(=O)Nc1cccc(-c2cnc(N[C@@H]3CCCC[C@H]3N[C@H]3CCCN(c4cnc(C(F)(F)F)nc4)C3)o2)c1 [Example 417]
6	C[C@]1(N[C@@H]2CCCC[C@H]2Nc2ncc(-c3cccc(C(N)=O)c3)o2)CCCN(c2ccc(C(=O)NC(=O)C3CC3)nc2)C1 [Example 446]
4	C[C@]1(N[C@@H]2CCCC[C@H]2Nc2ncc(-c3cccc(C(N)=O)c3)o2)CCCN(c2ncc(C(F)(F)F)cn2)C1 [Example 405]
8	NC(=O)c1cccc(-c2cnc(N[C@@H]3CCCC[C@H]3N[C@H]3CCCN(c4cnc(C(F)(F)F)cn4)C3)o2)c1 [Example 475]
162	NC(=O)c1cccc(-c2cnc(N[C@@H]3CCCC[C@H]3N[C@H]3C[C@@H]4C[C@H]3N(c3cnc(C(F)(F)F)cn3)C4)o2)c1 [Example 470]
22	Cc1nc2ccc(N3CCC[C@H](N[C@@H]4CCCC[C@H]4Nc4cc(-c5cccc(C(N)=O)c5)ccn4)C3)cn2n1 [Example 491]
2	Cc1nc(-c2ncc(N3CCC[C@H](N[C@@H]4CCCC[C@H]4Nc4cc(-c5ccc(F)c(F)c5)ccn4)C3)cn2)no1 [Example 467]

The next lines start with the molecule.

SMILES	EC50 [nM]
NC(=O)c1cccc(-c2cnc(N[C@@H]3CCCC[C@H]3N[C@H]3CCCN(c4ccc5ncnn5c4)C3)o2)c1 [Example 480]	17
Cc1noc(-c2ccc(N3CCC[C@H](N[C@@H]4CCCC[C@H]4Nc4cc(-c5cccc(OC(F)(F)F)c5)ccn4)C3)cc2)n1 [Example 363]	314
Cc1nc(-c2ccc(N3CCC[C@H](N[C@@H]4CCCC[C@H]4Nc4cc(-c5ccc(F)cc5F)ccn4)C3)cc2)no1 [Example 343]	11
COC(=O)Nc1cccc(-c2ccnc(N[C@@H]3CCCC[C@H]3N[C@H]3CCCN(c4ccc(Br)cc4)C3)c2)c1 [Example 513]	2

same assay, conditions: human Y4 stable CHO clonal cells, forskolin + IBMX; read-out: NPY4 cAMP HTRF Agonist Assay EC50

EC50 [nM]	SMILES
2	CCOC(=O)Nc1cccc(-c2cnc(N[C@@H]3CCCC[C@H]3N[C@H]3CCCN(c4ccc(C(F)(F)F)cc4)C3)o2)c1 [Example 101, Ethyl (3-(2-((1R,2R)-2(S)-1-(4-trifluoromethyl)phenylpiperidin-3-ylamino)cyclohexylamino)oxazol-5-yl)phenylcarbamate]
242	FC(F)(F)Oc1ccc(-c2cnc(N[C@@H]3CCCC[C@H]3N[C@H]3CCCN(c4ncc(C(F)(F)F)cn4)C3)o2)cc1 [Example 80, (1R,2R)—N1-(5-(4-(Trifluoromethoxy)phenyl)oxazol-2-yl)-N2-((S)-1-(5-(trifluoromethyl)pyrimidin-2-yl)piperidin-3-yl)cyclohexane-1,2-diamine bis-trifluoroacetate]
0.3	C[C@]1(N[C@@H]2CCCC[C@H]2Nc2ncc(-c3cccc(C(N)=O)c3)o2)CCCN(c2ccc(C(F)(F)F)cc2)C1 [Example 106, 3-(2-(((1R,2R)-2-(((S)-3-Methyl-1-(4-(trifluoromethyl)phenyl)piperidin-3-yl)amino)cyclohexyl)amino)oxazol-5-yl)benzamide]
42	N#Cc1ccc(N2CCC[C@H](N[C@@H]3CCCC[C@H]3Nc3ncc(-c4cccc(F)c4)o3)C2)cc1 [Example 35, 4-((S)-3-((1R,2R)-2-(5-(3-Fluorophenyl)oxazol-2-ylamino)cyclohexylamino)piperidin-1-yl)benzonitrile]
463	N#Cc1ccc(N2CCC[C@H](N[C@@H]3CCCC[C@H]3Nc3nc4ccccc4o3)C2)cc1 [Example 55, 4-((S)-3-((1R,2R)-2-(Benzo[d]oxazol-2-ylamino)cyclohexylamino)piperidin-1-yl)benzonitrile]

Second part, the molecule before the results:

SMILES	EC50 [nM]
N#Cc1ccc(N2CCC[C@H](N[C@@H]3CCCC[C@H]3Nc3ncc(-c4ccccc4F)o3)C2)cc1Cl [Example 39, 2-Chloro-4-((S)-3-((1R,2R)-2-(5-(2-fluorophenyl)oxazol-2-ylamino)cyclohexylamino)piperidin-1-yl)benzonitrile bis-trifluoroacetate]	35
Fc1cc(N2CCC[C@H](N[C@@H]3CCCC[C@H]3Nc3nccc(-c4ccccc4)n3)C2)ccc1C(F)(F)F [Example 74, (1R,2R)—N1-((S)-1-(3-Fluoro-4-(trifluoromethyl)phenyl)piperidin-3-yl)-N2-(4-phenylpyrimidin-2-yl)cyclohexane-1,2-diamine bis-trifluoroacetate]	420
N#Cc1ccc(N2CCC[C@H](N[C@@H]3CCCC[C@H]3Nc3ncc(-c4ccc(OC(F)(F)F)cc4)o3)C2)c(F)c1 [Example 52, 3-Fluoro-4-((S)-3-((1R,2R)-2-(5-(4-(trifluoromethoxy)phenyl)oxazol-2-ylamino)cyclohexylamino)piperidin-1-yl)benzonitrile]	193
CC(C)(C)OC(=O)/C=C/c1ccnc(N[C@@H]2CCCC[C@H]2N[C@H]2CCCN(c3ccc(C#N)cc3)C2)c1 [Example 109, (E)-tert-butyl 3-(2-(((1R,2R)-2-(((S)-1-(4-cyanophenyl)piperidin-3-yl)amino)cyclohexyl)amino)pyridin-4-yl)acrylate]	119
Cc1cnn(-c2ccc(N3CCC[C@H](N[C@@H]4CCCC[C@H]4Nc4ncc(-c5ccc(OC(F)(F)F)cc5)o4)C3)cc2)c1 [Example 66, (1R,2R)—N1-((S)-1-(4-(4-Methyl-1H-pyrazol-1-yl)phenyl)piperidin-3-yl)-N2-(5-(4-(trifluoromethoxy)phenyl)oxazol-2-yl)cyclohexane-1,2-diamine bis-trifluoroacetate]	1260
CCOC(=O)Nc1cccc(-c2cnc(N[C@@H]3CCCC[C@H]3N[C@H]3CCCN(c4cnc(C(F)(F)F)cn4)C3)o2)c1 [Example 98, Ethyl 3-(2-((1R,2R)-2-((S)-1-(5-(trifluoromethyl)pyrazin-2-yl)piperidin-3-ylamino)cyclohexylamino)oxazol-5-yl)phenylcarbamate]	0.7

same assay, conditions: second TABLE 1, R2 is Phenyl-CF3; read-out: hY4 CAMP EC50

EC50 [nM]	SMILES
30	OCCc1cccc(-c2ccnc(N[C@@H]3CCCC[C@H]3N[C@H]3CCCN(c4ccc(C(F)(F)F)cc4)C3)c2)c1 [Example 149]
579	FC(F)(F)c1ccc(N2CCC[C@H](N[C@@H]3CCCC[C@H]3Nc3ncc(-c4ccccc4)cn3)C2)cc1 [Example 176]

Second part, the molecule before the results:

SMILES	EC50 [nM]
C[C@]1(N[C@@H]2CCCC[C@H]2Nc2cc(-c3cccc(C(N)=O)c3)ccn2)CCCN(c2ccc(C(F)(F)F)cc2)C1 [Example 120]	3
OCCCCCc1ccnc(N[C@@H]2CCCC[C@H]2N[C@H]2CCCN(c3ccc(C(F)(F)F)cc3)C2)c1 [Example 186]	115
N#Cc1cccc(-c2cnc(N[C@@H]3CCCC[C@H]3N[C@H]3CCCN(c4ccc(C(F)(F)F)cc4)C3)o2)c1 [Example 160]	548
CC(C)(O)c1cccc(-c2ccnc(N[C@@H]3CCCC[C@H]3N[C@H]3CCCN(c4ccc(C(F)(F)F)cc4)C3)c2)c1 [Example 126]	48
COC(=O)N(C)c1cccc(-c2ccnc(N[C@@H]3CCCC[C@H]3N[C@H]3CCCN(c4ccc(C(F)(F)F)cc4)C3)c2)c1 [Example 173]	920
